This note sets out measurements from patent US10213415B2, “Compounds as opioid receptor modulators” (JANSSEN PHARMACEUTICA NV, priority 2004, dated 2019).

Several values for one entry are separate records, joined by “and”; a condition that tells them apart may be missing. Identical values can stand only once. Like-named read-outs stand apart in the source and are kept apart here.

One assay deals with T1, mu opioid receptor (Rattus norvegicus, UniProt P33535).
T1 construct: from tissue; host or cells: forebrain of male Wistar rats
T1 sequence (P33535 whole entry): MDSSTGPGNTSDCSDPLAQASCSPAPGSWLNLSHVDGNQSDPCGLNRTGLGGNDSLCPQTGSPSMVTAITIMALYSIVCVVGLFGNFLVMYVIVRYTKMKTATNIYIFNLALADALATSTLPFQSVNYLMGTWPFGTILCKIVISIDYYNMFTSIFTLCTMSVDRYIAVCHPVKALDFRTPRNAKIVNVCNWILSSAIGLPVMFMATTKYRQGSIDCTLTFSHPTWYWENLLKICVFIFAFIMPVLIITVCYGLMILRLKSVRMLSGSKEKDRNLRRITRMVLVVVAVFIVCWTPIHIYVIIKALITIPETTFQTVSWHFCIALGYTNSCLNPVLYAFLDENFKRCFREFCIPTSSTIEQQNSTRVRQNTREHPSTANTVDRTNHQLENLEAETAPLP
Briefly: Rat Brain Mu Opioid Receptor Binding Assay (and Version 2a, [3H]DAMGO). Particulars: rat forebrain membranes, margin of error 10-20%. The method, boiled down:
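Rat forebrain membranes from male Wistar rats in 50 mM Tris-HCl pH 7.4 with 5 mM MgCl2 incubated with 0.8 nM [3H]DAMGO for 2.5 h at 25° C., then filtered and counted. Data given as % inhibition of specific binding at single concentrations or as Ki from concentration series.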

The next assay has as its target T2, human mu opioid receptor (Homo sapiens, UniProt P35372).
T2 construct: purchased Perkin Elmer RBHOMM400UA; host or cells: Chinese Hamster Ovary cells (recombinant expression)
The assay is described as follows: Human Mu Opioid Receptor Binding Assay (CHO membranes, 3H-Damgo). A digest of the protocol: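 Membranes from CHO cells expressing human mu opioid receptor, 300 μg/mL, in 50 mM Tris pH 7.5, 5 mM MgCl2. Incubated with compound and ³H-Damgo (3.6 nM before mixing) for 2 h at room temperature, filtered, counted by scintillation. Nonspecific binding with 1 μM unlabelled Damgo.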

For assay [1], the target named is T3, mu opioid receptor (CHO-hMOR cell membranes) (Homo sapiens, UniProt P35372).
T3 construct: purchased Receptor Biology, Inc. (Baltimore, Md.); host or cells: CHO cells (recombinant expression)
T3 sequence (P35372 whole entry): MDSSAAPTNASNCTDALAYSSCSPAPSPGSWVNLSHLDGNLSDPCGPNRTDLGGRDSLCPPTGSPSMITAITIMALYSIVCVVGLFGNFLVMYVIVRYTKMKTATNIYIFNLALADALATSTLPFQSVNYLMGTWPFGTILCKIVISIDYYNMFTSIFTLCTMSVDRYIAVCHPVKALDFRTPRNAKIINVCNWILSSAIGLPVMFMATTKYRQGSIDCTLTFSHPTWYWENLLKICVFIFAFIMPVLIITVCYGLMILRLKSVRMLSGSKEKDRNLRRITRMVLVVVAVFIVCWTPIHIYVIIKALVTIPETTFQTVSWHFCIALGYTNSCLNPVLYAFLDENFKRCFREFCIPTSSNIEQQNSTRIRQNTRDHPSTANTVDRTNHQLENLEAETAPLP
Briefly: Mu Opioid Receptor Functional Assay: [35S]GTPγS Binding in CHO-hMOR Cell Membranes, Versions 1 and 2. It counts as biochemical. Particulars: for MOR GTP binding assay_v1 (% I): version 1, % inhibition of agonist-stimulated GTPγS binding; for MOR GTP assay_v1 % of Basal: version 1, basal binding = 100%; for MOR GTP binding assay_v2 (% I): version 2, % inhibition of agonist-stimulated GTPγS binding; for EC50: version 2, read-out: MOR GTP binding assay v2 EC50. The method, boiled down:
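CHO-hMOR membranes (10 μg/ml) on WGA SPA beads, preincubated 45 min at 25 °C, then incubated with 0.5 nM [35S]GTPγS in HEPES pH 7.6, 5 mM MgCl2, 100 mM NaCl, 1 mM DTT, 1 mM EDTA. Non-specific binding with 10 μM unlabeled GTPγS; agonist EC50 from concentration-response, antagonism as inhibition of 1 μM SNC80-stimulated binding.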

T2 sequence (P35372 whole entry): as above

With `CC(C)N(C(=O)[C@@H](N)Cc1ccc(O)cc1)[C@@H](C)c1nc(-c2ccccc2)c[nH]1` [Cpd 225], the Ki on mu opioid receptor (read-out: r Ki μ) is 0.73 nM. Besides, the Ki at human mu opioid receptor (read-out: hKi μ) was found to be 1.4 nM. In assay [1], the “MOR GTP binding assay_v1 (% I)” value was determined as 1.00% and the “MOR GTP assay_v1 % of Basal” value is on record as 657.00%.
Turning to `C[C@@H](c1nc(-c2ccccc2)c[nH]1)N(Cc1ccccc1)C(=O)[C@@H](N)Cc1ccc(O)cc1` [Cpd 219], the Ki on mu opioid receptor (read-out: r Ki μ) stood at 0.87 nM. Also, the Ki on human mu opioid receptor (read-out: hKi μ) came to 16.2 nM. In assay [1], the “MOR GTP binding assay_v1 (% I)” value is 1.00% and the “MOR GTP assay_v1 % of Basal” value is 611.00%.
On to `COc1ccc(CN(C(=O)[C@@H](N)Cc2c(C)cc(C(N)=O)cc2C)[C@@H](C)c2nc(-c3ccccc3)c[nH]2)cc1C(=O)O` [Cpd 18], for which the Ki at mu opioid receptor (r Ki μ) was 0.75 nM and 1.1 nM; at human mu opioid receptor (hKi μ), 1.7 nM. Further, the “MOR GTP binding assay_v2 (% I)” value in assay [1] is reported as 7.54%. The EC50 in assay [1] stood at 1 nM.
As to `Cc1cc(O)cc(C)c1C[C@H](N)C(=O)N(C)Cc1nc(-c2ccccc2)c[nH]1` [Cpd 199], the Ki at mu opioid receptor (read-out: r Ki μ) turned out to be 0.3 nM. Besides, on human mu opioid receptor (read-out: hKi μ), the Ki came out at 0.29 nM. In assay [1], the “MOR GTP binding assay_v1 (% I)” value was determined as 11.00% and the “MOR GTP assay_v1 % of Basal” value was 465.00%.
Take `COC(=O)c1cc(CN(C(=O)[C@@H](N)Cc2c(C)cc(C(N)=O)cc2C)[C@@H](C)c2nc(-c3ccccc3)c[nH]2)ccc1OC` [Cpd 17]: on mu opioid receptor (read-out: r Ki μ), the Ki turned out to be 0.22 nM. The Ki on human mu opioid receptor (read-out: hKi μ) was 2.2 nM. In addition, in assay [1], the “MOR GTP binding assay_v2 (% I)” value was 8.71% and the EC50 is 2.5 nM.
With `Cc1cc(O)cc(C)c1C[C@H](N)C(=O)N(Cc1nc(-c2cc(C(F)(F)F)cc(C(F)(F)F)c2)c(C)[nH]1)C(C)C` [Cpd 164], the Ki was found to be 0.38 nM on mu opioid receptor (read-out: r Ki μ) and 16.3 nM on human mu opioid receptor (read-out: hKi μ). Besides, the “MOR GTP binding assay_v1 (% I)” value in assay [1] is 1.00%.
